Laboratory results published in PubChem BioAssay (NCI).
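All cell lines were grown in 96-well plates and treated with compound for 48 hours. Abbreviation: GI50, concentration required for 50% inhibition of growth. TGI is the concentration that stops growth completely.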

How the values were obtained:
Experiment in all cases: NCI-60 cell line screen, 48 h
HOP-62 NSCLC = tested on: HOP-62 NSCLC
IGROV1 ovarian = tested on: IGROV1 ovarian
RPMI-8226 leukemia = tested on: RPMI-8226 leukemia
CAKI-1 renal = tested on: CAKI-1 renal
SNB-19 CNS = tested on: SNB-19 CNS
U251 CNS = tested on: U251 CNS
SK-MEL-5 melanoma = tested on: SK-MEL-5 melanoma
UACC-257 melanoma = tested on: UACC-257 melanoma
NCI-H522 lung = tested on: NCI-H522 lung
A549 NSCLC = tested on: A549 NSCLC

SMILES | TGI (HOP-62 NSCLC) [µM] | TGI (IGROV1 ovarian) [µM] | TGI (RPMI-8226 leukemia) [µM] | TGI (CAKI-1 renal) [µM] | TGI (SNB-19 CNS) [µM] | TGI (U251 CNS) [µM] | TGI (SK-MEL-5 melanoma) [µM] | TGI (UACC-257 melanoma) [µM] | TGI (NCI-H522 lung) [µM] | TGI (A549 NSCLC) [µM] | GI50 (HOP-62 NSCLC) [µM] | GI50 (IGROV1 ovarian) [µM] | GI50 (RPMI-8226 leukemia) [µM] | GI50 (CAKI-1 renal) [µM] | GI50 (SNB-19 CNS) [µM] | GI50 (U251 CNS) [µM] | GI50 (SK-MEL-5 melanoma) [µM] | GI50 (UACC-257 melanoma) [µM] | GI50 (NCI-H522 lung) [µM] | GI50 (A549 NSCLC) [µM]
Cc1ccc(N2C(=O)N(c3ccc(C)cc3)C3(SC=NN3C)C2=O)cc1 (centres undefined) | > 100 | > 100 | > 100 | > 100 | > 100 | > 100 | > 100 | > 100 | > 100 | > 100 |  |  |  |  |  |  |  |  |  | 
COc1ccc(-c2noc(N)c2-c2cc(OC)c3c(c2)OCO3)cc1 | > 100 | > 100 | > 49.9 | > 100 | > 100 | > 100 | 21.2 | > 100 |  | > 100 | 3.19 | 6.8 | 3.25 | 3.21 | 10.6 | 3.7 | 3.14 | 5.87 | 1.24 | 3.13
CCOc1ccc(N=Cc2c3ccccc3nc3ccccc23)cc1 | > 100 | > 100 | > 100 | > 100 | > 100 | > 100 | > 100 | > 100 | > 100 | > 100 |  |  |  |  |  |  |  |  |  | 
CC1=NC(C)(COC(=O)C2(C)NC(C)(CO)CO2)COC1=O (centres undefined) | > 100 | > 100 | > 100 | > 100 | > 100 | > 100 | > 100 | > 100 | > 100 | > 100 |  |  |  |  |  |  |  |  |  | 
NC(=O)c1cn(Cc2ccccc2)c(=O)n1Cc1ccccc1 | > 100 | > 100 | > 100 | > 100 | > 100 | > 100 | > 100 | > 100 | > 100 | > 100 |  |  |  |  |  |  |  |  |  | 
COc1ccc2nc3cc(Cl)ccc3c(Sc3ccc(NC(C)=O)cc3)c2c1 | > 60.2 | > 56 | 83.8 | > 50.6 | > 26.4 | > 20.7 | > 45.5 | > 41 | 7.85 | > 100 |  |  |  |  |  |  |  |  |  | 
O=C(NNc1cnccn1)c1nc2cc(F)ccc2n2cccc12 | > 100 | > 100 | > 100 | > 100 | > 100 | > 100 | 3.13 | > 100 | 0.963 | > 100 | 0.364 | 0.503 | 0.518 | 0.422 | 0.7 | 0.363 | 1.07 | 0.515 | 0.281 | 0.542
Oc1ccc(Oc2cnc3ccccc3n2)cc1 | > 100 | > 100 | > 100 | 81.1 | > 100 | > 100 | > 100 | > 100 | > 100 | > 100 | > 100 | > 100 | > 100 | 29.5 | > 100 | > 100 | 55.7 | > 100 | > 100 | > 100
COc1cc2c3c(n(CCCN(C)CCO)c(=O)c2cc1OC)-c1cc2c(cc1C3=O)OCO2 | > 100 | > 55.6 | 8.94 | > 100 | > 100 | > 100 | 33.5 | > 100 | > 46 | > 100 | 1.17 | 2.47 | 1.45 | 0.936 | 8.32 | 0.814 | 4.77 | > 62.6 | 2.16 | 9.49
COc1ccc(-c2cc(Nc3ccnc(N4CCOCC4)n3)on2)cc1 | 16.8 | 16.9 | 18.6 | 18.7 | 17.6 | 12.7 | 2.07 | 11.4 | 3.12 | 12.1 | 0.372 | 0.245 | 0.416 | 0.089 | 0.428 | 0.329 | 0.189 | 1.48 | 0.0815 | 0.224
CC(=O)NC1CONC1=O (centres undefined) | > 100 | > 100 | > 100 | > 100 | > 100 | > 100 | > 100 | > 100 | > 100 | > 100 |  |  |  |  |  |  |  |  |  | 
CC(C)(C)c1cc(C(=O)/C=C/c2ccc(C(=O)O)cc2)cc(C(C)(C)C)c1 | 6.49 | 12.2 | 6.06 | 15.5 | 5.74 | 11.2 | 14.7 | 21.9 | 15.4 | 13.4 |  |  |  |  |  |  |  |  |  | 
